We go through six molecules from PubChem BioAssay (NCI).

Common to all, as to experiment: DTP human tumour cell line panel, 48 h
For test [1], the system named is A498 renal.
The subject of test [2] is NCI-H522 lung.
The subject of test [3] is RPMI-8226 leukemia.
Test [4] deals with SF-268 CNS.
In test [5] the test system is SK-OV-3 ovarian.
In test [6] the test system is SNB-19 CNS.
Test [7] relates to SR leukemia.
The subject of test [8] is SW-620 colon.
For test [9], the system named is UACC-257 melanoma.
In test [10] the test system is UO-31 renal.

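Growth conditions: 96-well plates. Treatment: test compound, 48 hours, 5 concentrations. Analysis: linear interpolation between bracketing concentrations; unreached endpoints set to highest concentration. At the GI50, growth is halved. At the TGI there is no net growth.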

The GI50 is the concentration that inhibits growth by half. A word on the TGI: it is the concentration giving total growth inhibition. Low readings indicate more potent growth arrest, high ones less potent growth arrest.

`OCCn1c(-c2ccncc2)c(-c2ccc(F)cc2)c2ncccc21`: the GI50 in test [1] is > 20.3 µM; in test [2], > 25 µM; in [3], > 25 µM; in test [4] it was > 25 µM; in test [5], > 25 µM; in test [6], > 25 µM. The GI50 in test [7] was > 25 µM; in test [8] it was > 25 µM; in test [9], > 25 µM; in test [10], 12.5 µM. In addition, the TGI in test [1], in test [2], in [3], in [4], in test [5] and in [6] was > 25 µM in each case. Besides, the TGI in test [7], in [8], in test [9] and in test [10] was > 25 µM throughout.
With `CC(C)C12CCC3(CCC4C(C)(C(=O)O)CCCC4(C)C3C1)C(CN)C2` (centres undefined), the TGI is 98.4 µM in test [1]; 70.3 µM in [2]; 42 µM in test [3]; > 100 µM in test [4]; > 100 µM in [5]; > 100 µM in test [6]. Further, the total growth inhibition concentration (TGI) in test [7] was 60.1 µM; in test [8] it was > 100 µM; in [9], > 100 µM; in test [10] it was > 100 µM.
In the case of `CC(=O)Nc1ccc(C(=O)COc2cccc(/C=C3\CCc4ccccc4C3=O)c2)cc1`, the GI50 in [1] is 53.6 µM; in test [2] it was 6.55 µM; in [3], 1.82 µM; in [4] it was 19 µM; in test [5], 30.1 µM; in test [6] it was 17.4 µM. Moreover, the concentration for 50% growth inhibition (GI50) was 0.0802 µM in test [7], 3.65 µM in test [8], 15.7 µM in test [9] and 15.5 µM in [10]. The total growth inhibition concentration (TGI) is > 100 µM in test [1]; 32.8 µM in test [2]; 4.97 µM in test [3]; 52.4 µM in test [4]; > 100 µM in test [5]; 51.7 µM in test [6]. Besides, the TGI in [7] is 16.7 µM; in test [8] it was 15 µM; in test [9] it was 39 µM; in [10] it was 64 µM.
On to `O=C(c1ccccc1)c1ccc(N2C(=O)C3C4c5ccccc5C(/C=C/C(=O)c5ccccn5)(c5ccccc54)C3C2=O)cc1` (centres undefined), for which the GI50 in test [1] was 2.19 µM; in test [2], 2.28 µM; in [3] it was 2.49 µM; in test [4], > 23.1 µM; in [5] it was > 81.7 µM; in [6] it was 3.72 µM. In addition, the GI50 is 1.37 µM in test [7], 2.82 µM in test [8], 2.44 µM in [9] and 1.45 µM in test [10]. Besides, the TGI in test [1] was 5.8 µM; in test [2], 6.82 µM; in test [3], 53.3 µM; in test [4] it was > 100 µM; in [5], > 100 µM; in [6] it was > 100 µM. Besides, the concentration for total growth inhibition (TGI) in [7] was > 100 µM; in [8], > 100 µM; in test [9], 46.6 µM; in [10] it was 2.92 µM.
Turning to `Cn1ncc2c(c1=O)Nc1ccccc1S2(=O)=O`, the concentration for total growth inhibition (TGI) is > 100 µM in [1]; > 100 µM in test [2]; 97.6 µM in [3]; > 100 µM in [4]; > 100 µM in test [5]; > 100 µM in test [6]. In addition, the TGI in test [7] was > 100 µM; in test [8], 32.4 µM; in test [9], > 100 µM; in test [10], > 100 µM.
Regarding `Nc1ccc(N)c2c1C(=O)c1cccc([N+](=O)[O-])c1C2=O`, the GI50 is 0.125 µM in test [1]; 1.46 µM in test [2]; 2.82 µM in test [3]; 5.07 µM in test [4]; 3.43 µM in test [5]; 2.4 µM in test [6]. For the same molecule, the GI50 in test [7] was 0.529 µM; in test [8], 2.41 µM; in test [9] it was 0.784 µM; in test [10], 2.68 µM. Besides, the total growth inhibition concentration (TGI) in [1] is 1.03 µM; in test [2], 17.9 µM; in [3], > 100 µM; in test [4], > 89.4 µM; in test [5], > 100 µM; in [6], > 30.4 µM. The total growth inhibition concentration (TGI) in [7] was > 20.6 µM; in test [8], > 100 µM; in [10], > 22.6 µM.
